Measurements reported in patent US20240287007A1, “N-(1,3,4-OXADIAZOL-2-YL)PHENYLCARBOXAMIDES AS HERBICIDES” (BAYER AKTIENGESELLSCHAFT, priority 2021, published 2024).

What was measured:
Format in all cases: in vivo
[1] = system: ABUTH (Abutylon threophrasti); test: Post-emergence herbicidal action against ABUTH; settings: visual assessment after about 3 weeks
Description: (§1) Seeds of monocotyledonous and dicotyledonous weed and crop plants are laid out in sandy loam soil in wood-fiber pots, covered with soil and cultivated in a greenhouse under good growth conditions. 2 to 3 weeks after sowing, the trial plants are treated at the one-leaf stage. The compounds of the invention, formulated in the form of wettable powders (WP) or as emulsion concentrates (EC), are then sprayed onto the green parts of the plants as aqueous suspension or emulsion at a water application rate equating to 600 to 800 l/ha with addition of 0.2% wetting agent. After the test plants have been left to stand in the greenhouse under optimal growth conditions for about 3 weeks, the action of the preparations is assessed visually in comparison to untreated controls (herbicidal action in percent (%): 100% activity=the plants have died, 0% activity=like control plants).

[2] = system: AMARE (Amaranthus retroflexus); test: Post-emergence herbicidal action against AMARE; settings: visual assessment after about 3 weeks
Description: as §1

[3] = system: DIGSA (Digitaria sanguinalis); test: Post-emergence herbicidal action against DIGSA; settings: visual assessment after about 3 weeks
Description: as §1

SETVI (Setaria viridis) [4] = test: Post-emergence herbicidal action against SETVI; settings: visual assessment after about 3 weeks
Description: as §1

VIOTR (Viola tricolor) [5] = test: Post-emergence herbicidal action against VIOTR; settings: visual assessment after about 3 weeks
Description: as §1

KCHSC (Kochia scoparia) [6] = test: Post-emergence herbicidal action against KCHSC; settings: visual assessment after about 3 weeks
Description: as §1

[7] = system: ABUTH (Abutylon threophrasti); test: Pre-emergence herbicidal effect against ABUTH; settings: scored visually after 3 weeks
Excerpt: (§2) Seeds of monocotyledonous and dicotyledonous weed plants and crop plants are laid out in sandy loam soil in wood-fiber pots and covered with soil. The compounds of the invention, formulated in the form of wettable powders (WP) or as emulsion concentrates (EC), are then applied to the surface of the covering soil as aqueous suspension or emulsion at a water application rate equating to 600 to 800 l/ha with addition of 0.2% wetting agent. After the treatment, the pots are placed in a greenhouse and kept under good growth conditions for the trial plants. The damage to the test plants is scored visually after a test period of 3 weeks by comparison with untreated controls (herbicidal activity in percent (%): 100% activity=the plants have died, 0% activity=like control plants).

[8] = system: AMARE (Amaranthus retroflexus); test: Pre-emergence herbicidal effect against AMARE; settings: scored visually after 3 weeks
Excerpt: as §2

[9] = system: DIGSA (Digitaria sanguinalis); test: Pre-emergence herbicidal effect against DIGSA; settings: scored visually after 3 weeks
Excerpt: as §2

[10] = system: ECHCG (Echinochloa crus-galli); test: Pre-emergence herbicidal effect against ECHCG; settings: scored visually after 3 weeks
Excerpt: as §2

[11] = system: POLCO (Polygonum convolvulus); test: Pre-emergence herbicidal effect against POLCO; settings: scored visually after 3 weeks
Excerpt: as §2

SETVI (Setaria viridis) [12] = test: Pre-emergence herbicidal effect against SETVI; settings: scored visually after 3 weeks
Excerpt: as §2

VIOTR (Viola tricolor) [13] = test: Pre-emergence herbicidal effect against VIOTR; settings: scored visually after 3 weeks
Excerpt: as §2

KCHSC (Kochia scoparia) [14] = test: Pre-emergence herbicidal effect against KCHSC; settings: scored visually after 3 weeks
Excerpt: as §2

[15] = system: MATIN (Matricaria inodora); test: Post-emergence herbicidal action against MATIN; settings: visual assessment after about 3 weeks
Description: as §1

[16] = system: PHBPU (Pharbitis purpurea); test: Post-emergence herbicidal action against PHBPU; settings: visual assessment after about 3 weeks
Description: as §1

VERPE (Veronica persica) [17] = test: Post-emergence herbicidal action against VERPE; settings: visual assessment after about 3 weeks
Description: as §1

LOLRI (Lolium rigidum) [18] = test: Post-emergence herbicidal action against LOLRI; settings: visual assessment after about 3 weeks
Description: as §1

[19] = system: POLCO (Polygonum convolvulus); test: Post-emergence herbicidal action against POLCO; settings: visual assessment after about 3 weeks
Description: as §1

[20] = system: ALOMY (Alopecurus myosuroides); test: Pre-emergence herbicidal effect against ALOMY; settings: 80 g/ha, scored visually after 3 weeks
Excerpt: as §2

AVEFA (Avena fatua) = test: Pre-emergence herbicidal effect against AVEFA; settings: scored visually after 3 weeks
Excerpt: as §2

LOLRI (Lolium rigidum) [21] = test: Pre-emergence herbicidal effect against LOLRI; settings: scored visually after 3 weeks
Excerpt: as §2

[22] = system: MATIN (Matricaria inodora); test: Pre-emergence herbicidal effect against MATIN; settings: scored visually after 3 weeks
Excerpt: as §2

[23] = system: PHBPU (Pharbitis purpurea); test: Pre-emergence herbicidal effect against PHBPU; settings: scored visually after 3 weeks
Excerpt: as §2

VERPE (Veronica persica) [24] = test: Pre-emergence herbicidal effect against VERPE; settings: 80 g/ha, scored visually after 3 weeks
Excerpt: as §2

CSc1c(OC(F)F)ccc(C(=O)Nc2nnco2)c1Cl [Example 1-21, 2-chloro-4-(difluoromethoxy)-3-(methylsulfanyl)-N-(1,3,4-oxadiazol-2-yl)benzamide]
100%: Post-emergence effect at 20 g/ha against AMARE in % [2] | Post-emergence effect at 80 g/ha against AMARE in % [2] | Post-emergence effect at 80 g/ha against SETVI in % (SETVI (Setaria viridis) [4]) | Post-emergence effect at 20 g/ha against VIOTR in % (VIOTR (Viola tricolor) [5]) | Post-emergence effect at 80 g/ha against VIOTR in % (VIOTR (Viola tricolor) [5]) | Post-emergence effect at 80 g/ha against KCHSC in % (KCHSC (Kochia scoparia) [6]) | Pre-emergence effect at 80 g/ha against ABUTH in % [7] | Pre-emergence effect at 80 g/ha against AMARE in % [8] | Pre-emergence effect at 80 g/ha against DIGSA in % [9] | Pre-emergence effect at 80 g/ha against ECHCG in % [10] | Pre-emergence effect at 80 g/ha against POLCO in % [11] | Pre-emergence effect at 20 g/ha against VIOTR in % (VIOTR (Viola tricolor) [13]) | Pre-emergence effect at 80 g/ha against VIOTR in % (VIOTR (Viola tricolor) [13])
80%: Post-emergence effect at 80 g/ha against ABUTH in % [1] | Post-emergence effect at 20 g/ha against SETVI in % (SETVI (Setaria viridis) [4])
90%: Post-emergence effect at 20 g/ha against DIGSA in % [3] | Post-emergence effect at 80 g/ha against DIGSA in % [3] | Post-emergence effect at 20 g/ha against KCHSC in % (KCHSC (Kochia scoparia) [6]) | Pre-emergence effect at 20 g/ha against AMARE in % [8] | Pre-emergence effect at 20 g/ha against DIGSA in % [9] | Pre-emergence effect at 80 g/ha against SETVI in % (SETVI (Setaria viridis) [12]) | Pre-emergence effect at 20 g/ha against KCHSC in % (KCHSC (Kochia scoparia) [14]) | Pre-emergence effect at 80 g/ha against KCHSC in % (KCHSC (Kochia scoparia) [14])

CSc1c(OC(F)(F)F)ccc(C(=O)Nc2nnco2)c1Cl [Example 1-31, 2-chloro-3-(methylsulfanyl)-N-(1,3,4-oxadiazol-2-yl)-4-(trifluoromethoxy)benzamide]
90%: Post-emergence effect at 80 g/ha against ABUTH in % [1] | Post-emergence effect at 20 g/ha against DIGSA in % [3] | Post-emergence effect at 80 g/ha against DIGSA in % [3] | Post-emergence effect at 80 g/ha against MATIN in % [15] | Post-emergence effect at 20 g/ha against PHBPU in % [16] | Post-emergence effect at 80 g/ha against PHBPU in % [16] | Post-emergence effect at 80 g/ha against SETVI in % (SETVI (Setaria viridis) [4]) | Post-emergence effect at 20 g/ha against VIOTR in % (VIOTR (Viola tricolor) [5]) | Pre-emergence effect at 20 g/ha against ABUTH in % [7] | Pre-emergence effect at 20 g/ha against DIGSA in % [9] | Pre-emergence effect at 20 g/ha against VIOTR in % (VIOTR (Viola tricolor) [13]) | Pre-emergence effect at 80 g/ha against VIOTR in % (VIOTR (Viola tricolor) [13]) | Pre-emergence effect at 20 g/ha against KCHSC in % (KCHSC (Kochia scoparia) [14])
100%: Post-emergence effect at 20 g/ha against AMARE in % [2] | Post-emergence effect at 80 g/ha against AMARE in % [2] | Post-emergence effect at 80 g/ha against VIOTR in % (VIOTR (Viola tricolor) [5]) | Post-emergence effect at 20 g/ha against KCHSC in % (KCHSC (Kochia scoparia) [6]) | Post-emergence effect at 80 g/ha against KCHSC in % (KCHSC (Kochia scoparia) [6]) | Pre-emergence effect at 80 g/ha against ABUTH in % [7] | Pre-emergence effect at 80 g/ha against AMARE in % [8] | Pre-emergence effect at 80 g/ha against DIGSA in % [9] | Pre-emergence effect at 80 g/ha against ECHCG in % [10] | Pre-emergence effect at 80 g/ha against SETVI in % (SETVI (Setaria viridis) [12]) | Pre-emergence effect at 80 g/ha against KCHSC in % (KCHSC (Kochia scoparia) [14])
80%: Post-emergence effect at 20 g/ha against MATIN in % [15] | Post-emergence effect at 20 g/ha against SETVI in % (SETVI (Setaria viridis) [4]) | Post-emergence effect at 80 g/ha against VERPE in % (VERPE (Veronica persica) [17])

CS(=O)(=O)c1c(OC(F)(F)F)ccc(C(=O)Nc2nnco2)c1Cl [Example 1-35, 2-chloro-3-(methylsulfonyl)-N-(1,3,4-oxadiazol-2-yl)-4-(trifluoromethoxy)benzamide]
90%: Post-emergence effect at 80 g/ha against ABUTH in % [1] | Post-emergence effect at 20 g/ha against AMARE in % [2] | Post-emergence effect at 80 g/ha against AMARE in % [2] | Post-emergence effect at 20 g/ha against DIGSA in % [3] | Post-emergence effect at 20 g/ha against MATIN in % [15] | Post-emergence effect at 20 g/ha against PHBPU in % [16] | Post-emergence effect at 20 g/ha against VERPE in % (VERPE (Veronica persica) [17]; 20 g/ha) | Pre-emergence effect at 20 g/ha against ABUTH in % [7] | Pre-emergence effect at 20 g/ha against AVEFA in % (AVEFA (Avena fatua); 20 g/ha) | Pre-emergence effect at 80 g/ha against LOLRI in % (LOLRI (Lolium rigidum) [21]; 80 g/ha) | Pre-emergence effect at 20 g/ha against POLCO in % ([11]; 20 g/ha)
100%: Post-emergence effect at 80 g/ha against DIGSA in % [3] | Post-emergence effect at 80 g/ha against MATIN in % [15] | Post-emergence effect at 80 g/ha against PHBPU in % [16] | Post-emergence effect at 80 g/ha against POLCO in % ([19]; 80 g/ha) | Post-emergence effect at 20 g/ha against SETVI in % (SETVI (Setaria viridis) [4]) | Post-emergence effect at 80 g/ha against SETVI in % (SETVI (Setaria viridis) [4]) | Post-emergence effect at 80 g/ha against VERPE in % (VERPE (Veronica persica) [17]) | Post-emergence effect at 20 g/ha against VIOTR in % (VIOTR (Viola tricolor) [5]) | Post-emergence effect at 80 g/ha against VIOTR in % (VIOTR (Viola tricolor) [5]) | Post-emergence effect at 20 g/ha against KCHSC in % (KCHSC (Kochia scoparia) [6]) | Post-emergence effect at 80 g/ha against KCHSC in % (KCHSC (Kochia scoparia) [6]) | Pre-emergence effect at 80 g/ha against ABUTH in % [7] | Pre-emergence effect at 20 g/ha against AMARE in % [8] | Pre-emergence effect at 80 g/ha against AMARE in % [8] | Pre-emergence effect at 80 g/ha against A VEFA in % (AVEFA (Avena fatua); 80 g/ha) | Pre-emergence effect at 20 g/ha against DIGSA in % [9] | Pre-emergence effect at 80 g/ha against DIGSA in % [9] | Pre-emergence effect at 20 g/ha against ECHCG in % ([10]; 20 g/ha) | Pre-emergence effect at 80 g/ha against ECHCG in % [10] | Pre-emergence effect at 20 g/ha against MATIN in % ([22]; 20 g/ha) | Pre-emergence effect at 80 g/ha against MATIN in % ([22]; 80 g/ha) | Pre-emergence effect at 80 g/ha against PHBPU in % ([23]; 80 g/ha) | Pre-emergence effect at 80 g/ha against POLCO in % [11] | Pre-emergence effect at 20 g/ha against SETVI in % (SETVI (Setaria viridis) [12]; 20 g/ha) | Pre-emergence effect at 80 g/ha against SETVI in % (SETVI (Setaria viridis) [12]) | Pre-emergence effect at 80 g/ha against VERPE in % (VERPE (Veronica persica) [24]) | Pre-emergence effect at 20 g/ha against VIOTR in % (VIOTR (Viola tricolor) [13]) | Pre-emergence effect at 80 g/ha against VIOTR in % (VIOTR (Viola tricolor) [13]) | Pre-emergence effect at 20 g/ha against KCHSC in % (KCHSC (Kochia scoparia) [14]) | Pre-emergence effect at 80 g/ha against KCHSC in % (KCHSC (Kochia scoparia) [14])
80%: Post-emergence effect at 20 g/ha against ABUTH in % ([1]; 20 g/ha) | Post-emergence effect at 80 g/ha against LOLRI in % (LOLRI (Lolium rigidum) [18]) | Post-emergence effect at 20 g/ha against POLCO in % ([19]; 20 g/ha) | Pre-emergence effect at 80 g/ha against ALOMY in % [20] | Pre-emergence effect at 20 g/ha against LOLRI in % (LOLRI (Lolium rigidum) [21]; 20 g/ha) | Pre-emergence effect at 20 g/ha against PHBPU in % ([23]; 20 g/ha)
